The test system of assay [1] is Plasmodium falciparum. Nature of the assay: ST_JUDE: Plasmodium falciparum 3D7 EC50 (uM) as measured by SYBR green dye. The class given is functional, organism-based.
For assay [2], the system named is Plasmodium falciparum. In words: ST_JUDE: Plasmodium falciparum K1 EC50 (uM) as measured by SYBR green dye. The class given is functional, organism-based.

This is an account of results in ChEMBL document CHEMBL1154198, “Chemical genetics of Plasmodium falciparum” (Nature, 2010).

The EC50 is the concentration at which the effect is half-maximal. The low end stands for a more potent agent, the high end for a less potent agent.

For the molecule `Cc1ccc(/C=N/NC(=O)COc2ccc(Cl)cc2Cl)c(O)c1`, the EC50 in the assay on Plasmodium falciparum [1] and with Plasmodium falciparum [2] was above 15 µM throughout.

Regarding `O=C1C(Nc2ccc(Br)cc2)=C(N2CCOCC2)C(=O)c2ccccc21`, the EC50 in the assay with Plasmodium falciparum [1] was 1.79 µM; in the assay with Plasmodium falciparum [2] it was 0.377 µM.

Consider `COc1ccc(OC)c(NC(=O)C2c3ccccc3C(=O)N(C)C2c2cccs2)c1` (stereo unspecified), for which the EC50 is above 15 µM with Plasmodium falciparum [1] and 4.28 µM with Plasmodium falciparum [2].

As for `CCCC(=O)N1CCN(c2ccc(NC(=O)c3cccc(OCC)c3)cc2Cl)CC1`, the EC50 in the assay with Plasmodium falciparum [1] and in the assay on Plasmodium falciparum [2] was above 15 µM throughout.

For `CCC(=O)NC(c1ccc(Cl)cc1)c1ccc2cccnc2c1O` (stereo unspecified), the values for the EC50 in the assay with Plasmodium falciparum [1] and with Plasmodium falciparum [2] were 2.05 µM and 1.81 µM, respectively.

In the case of `CCOC(=O)c1ccc(NC2=C(n3nnc4ccccc43)C(=O)c3ccccc3C2=O)cc1`, the EC50 came to 3.23 µM with Plasmodium falciparum [1] and 0.678 µM in the assay on Plasmodium falciparum [2].

Turning to `Cc1cccc(NC(=O)CSc2nc3c4ccccc4nc-3c(O)n2-c2ccc([N+](=O)[O-])cc2)c1`, the EC50 in the assay with Plasmodium falciparum [1] was above 15 µM; in the assay with Plasmodium falciparum [2], 4.68 µM.

Take `O=C(Nc1cccc(Br)c1)c1cc2ccccc2cc1O`: the values for the concentration giving a half-maximal response (EC50) with Plasmodium falciparum [1] and with Plasmodium falciparum [2] were above 15 µM and 0.57 µM, respectively.

Consider `CCO/C(O)=C1\C(CC)=NC2=C(C(=O)CC(C)(C)C2)C1c1ccc(Cl)cc1Cl` (stereo unspecified), for which the EC50 with Plasmodium falciparum [1] was found to be 1.33 µM; with Plasmodium falciparum [2], 1.22 µM.

Turning to `CCCSc1nnc(Cn2c(=O)sc3ccccc32)n1C`, the EC50 with Plasmodium falciparum [1] and in the assay on Plasmodium falciparum [2] was above 15 µM each time.

Take `O=[N+]([O-])c1ccc(O)c(-c2cc(C(F)(F)F)nc(-c3ccccc3)n2)c1`: the EC50 turned out to be 1.75 µM in the assay with Plasmodium falciparum [1] and 3.25 µM in the assay on Plasmodium falciparum [2].

`CCOC(=O)C1=C(C)N=c2s/c(=C\c3cc(OC)ccc3O)c(=O)n2C1c1ccccc1` (stereo unspecified): the EC50 in the assay on Plasmodium falciparum [1] and in the assay with Plasmodium falciparum [2] was above 15 µM throughout.

On to `CCCOC(=O)c1cccc(NC(=O)C23CCC(C)(C(=O)O2)C3(C)C)c1` (stereo unspecified), for which the half-maximal effective concentration (EC50) in the assay on Plasmodium falciparum [1] and in the assay on Plasmodium falciparum [2] was above 15 µM each time.

On to `COc1ccc(OCC(O)CN2CCN(c3ccc(OC)cc3)CC2)cc1` (stereo unspecified), for which the EC50 in the assay on Plasmodium falciparum [1] and in the assay with Plasmodium falciparum [2] was above 15 µM throughout.

In the case of `CCCC(=O)NC(c1ccc(C)cc1)c1ccc2cccnc2c1O` (stereo unspecified), the 50% effective concentration (EC50) in the assay with Plasmodium falciparum [1] is 4.21 µM; in the assay with Plasmodium falciparum [2] it was above 15 µM.

Consider `CC[n+]1cccc(-c2nc3ccccc3s2)c1`, for which the EC50 is 7.66 µM in the assay on Plasmodium falciparum [1] and 5.92 µM in the assay on Plasmodium falciparum [2].

`N#Cc1ccc(Cn2c(=O)n(CCCC(=O)NCc3ccccc3)c(=O)c3sccc32)cc1`: the EC50 in the assay on Plasmodium falciparum [1] and in the assay on Plasmodium falciparum [2] was above 15 µM throughout.

Take `O=C(CN(Cc1ccc(Cl)cc1)S(=O)(=O)c1ccccc1)N1CCN(c2ccccc2F)CC1`: the EC50 is 2.91 µM in the assay with Plasmodium falciparum [1] and 2.13 µM in the assay with Plasmodium falciparum [2].

For `COc1ccccc1Nc1nc(NCc2ccccc2)c2ccccc2n1`, the EC50 stood at 3.97 µM in the assay with Plasmodium falciparum [1] and 11.8 µM with Plasmodium falciparum [2].

For the molecule `O=C1C(Nc2ccc(I)cc2)=C(N2CCCCC2)C(=O)c2ccccc21`, the figures for the EC50 in the assay with Plasmodium falciparum [1] and in the assay with Plasmodium falciparum [2] were 0.153 µM and 0.395 µM, respectively.

In the case of `CCc1c(C)nc(-n2nc(C)cc2NC(=O)c2ccccc2F)nc1O`, the EC50 with Plasmodium falciparum [1] and in the assay on Plasmodium falciparum [2] was above 15 µM each time.

As to `CCN1/C(=C/c2cccc[n+]2C)Sc2ccc(C)cc21`, the EC50 stood at 0.738 µM with Plasmodium falciparum [1] and 0.436 µM in the assay on Plasmodium falciparum [2].

Take `Cc1sc(NC(=O)c2cc(-c3ccccn3)nc3ccc(Cl)cc23)c(C(N)=O)c1C`: the EC50 in the assay on Plasmodium falciparum [1] and with Plasmodium falciparum [2] was above 15 µM in each case.

Consider `CCOC(=O)c1nnn(-c2nonc2N)c1-c1ccc(Cl)cc1`, for which the EC50 with Plasmodium falciparum [1] is above 15 µM; in the assay with Plasmodium falciparum [2] it was 3.47 µM.

On to `Cc1cccc(-n2c(N)c(C#N)c3nc4ccccc4nc32)c1`, for which the EC50 was 4.2 µM in the assay with Plasmodium falciparum [1] and above 15 µM with Plasmodium falciparum [2].

Regarding `CC(C)CN1CCC(C(=O)Nc2ccc(-c3nc4ccccc4[nH]3)cc2)CC1`, the concentration for a half-maximal effect (EC50) in the assay with Plasmodium falciparum [1] and in the assay with Plasmodium falciparum [2] was above 15 µM throughout.

With `CCCC(=O)NC(c1ccc(OC)cc1)c1ccc2cccnc2c1O` (stereo unspecified), the EC50 worked out at 1.65 µM with Plasmodium falciparum [1] and 2.65 µM in the assay on Plasmodium falciparum [2].

For the molecule `COC(=O)C1=CNC=C(C(=O)OC)C1c1ccc(F)c(F)c1`, the EC50 is 8.04 µM in the assay with Plasmodium falciparum [1] and above 15 µM in the assay on Plasmodium falciparum [2].
